Experimental data reported in US5331090A, “CR2 ligand compositions and methods for modulating immune cell functions” (California Institute of Biological Research, priority 1989, dated 1994).
No end group written: not given here.

Biological target: T1, CR2 receptor on Raji cells (Homo sapiens, UniProt P20023)
T1 construct: endogenous in cells; host or cells: Raji cells (human B lymphoblastoid, ATCC CCL 86)
T1 sequence (P20023 21-1033): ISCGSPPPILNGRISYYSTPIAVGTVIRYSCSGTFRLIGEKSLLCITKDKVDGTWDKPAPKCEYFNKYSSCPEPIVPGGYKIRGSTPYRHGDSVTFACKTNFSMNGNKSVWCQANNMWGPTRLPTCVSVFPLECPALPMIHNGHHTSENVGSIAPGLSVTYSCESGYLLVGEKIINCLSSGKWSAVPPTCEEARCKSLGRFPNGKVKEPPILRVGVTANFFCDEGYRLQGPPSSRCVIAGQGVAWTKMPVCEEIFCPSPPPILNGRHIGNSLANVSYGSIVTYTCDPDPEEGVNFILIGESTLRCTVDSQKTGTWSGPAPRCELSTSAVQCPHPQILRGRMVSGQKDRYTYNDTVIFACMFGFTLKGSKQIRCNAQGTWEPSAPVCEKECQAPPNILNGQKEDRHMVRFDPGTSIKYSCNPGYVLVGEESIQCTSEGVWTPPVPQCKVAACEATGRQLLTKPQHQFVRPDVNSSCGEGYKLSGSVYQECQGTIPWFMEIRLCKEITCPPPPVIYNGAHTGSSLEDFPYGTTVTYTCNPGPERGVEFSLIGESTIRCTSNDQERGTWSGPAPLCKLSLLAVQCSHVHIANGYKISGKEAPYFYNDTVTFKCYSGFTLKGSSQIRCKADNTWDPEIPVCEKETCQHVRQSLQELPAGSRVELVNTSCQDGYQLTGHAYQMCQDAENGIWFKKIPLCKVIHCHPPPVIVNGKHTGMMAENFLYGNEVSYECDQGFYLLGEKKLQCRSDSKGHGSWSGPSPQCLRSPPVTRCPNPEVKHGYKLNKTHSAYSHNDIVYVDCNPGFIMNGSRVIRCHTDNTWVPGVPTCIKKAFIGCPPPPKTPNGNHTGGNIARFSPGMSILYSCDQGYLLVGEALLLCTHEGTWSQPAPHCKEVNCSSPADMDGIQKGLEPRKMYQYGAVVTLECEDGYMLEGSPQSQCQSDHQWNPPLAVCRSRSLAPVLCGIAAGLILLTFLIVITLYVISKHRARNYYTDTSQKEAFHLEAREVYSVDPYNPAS
Experiment: Inhibition of direct binding of C3-coated Zymosan to cells (rosette count)
Conditions: polypeptide zero to 200 ug in 100 ul, 37 C 30 min, amount behind the value not stated
Experimental: Fresh blood from a healthy donor was collected and maintained at room temperature for 2 hours. Then the blood was centrifuged at 2000 x g for about 10 min and the resulting supernatant was collected. Five mg of Zymosan A particles (Sigma Chemical Co., St. Louis, Mo.) were boiled for 30 min in 20 ml of 150 mM NaCl and washed three times in phosphate-buffered saline (PBS) to form activated Zymosan. One mg of activated Zymosan particles was admixed with 0.5 ml of blood supernatant and maintained at 37 C. for 30 min, and then was washed 3 times in PBS. The washed particles were then resuspended in PBS at a concentration of 0.5 mg/ml to form a C3 -coated Zymosan composition.
Cultures containing 10^5 Raji or HSB2 cells were admixed with varying amounts (zero to 200 ug) of the polypeptides shown in Table 2 in a volume of 100 microliters (ul) of culture medium and the admixture was maintained at 37C for 30 min to allow CR2 ligand polypeptides to bind any CR2 receptor present on the cells. Thereafter, 50 ul of C3 -coated Zymosan composition was added to each culture, the cultures were subjected to centrifugation for 1 min at 600×g and then maintained at 37 C. for 30 min. The maintained cultures were then washed with prewarmed culture medium to rinse off non-bound particles. Washed cultures were observed using a microscope to detect and count the number of particles (rosettes) attached per cell. More than 3 rosettes per cell was counted as C3 specific binding. Inhibition is expressed as the percent decrease in bound rosettes when comparing binding in the presence or absence of admixed polypeptide.

| Substance | Inhibition of direct binding of C3-coated Zymosan to cells (percent decrease in bound rosettes) |
| --- | --- |
| LYNVEAT [LYNVEAT] | 70% |
| NSGVEA [NSGVEA] | 35% |
| SRRGDMS [SRRGDMS] | 0% |
